Laboratory results as given in publication PMC12310023 (PLOS Neglected Tropical Diseases, 2025).
Where “and” joins values, the source holds several entries; their conditions need not be identical. Equal entries are not always repeated.

Assays:
[1] = system: C. parvum Zambriski Laboratory isolate; test: Calibr high-content imaging Cryptosporidium panel; format: cell-based, Cryptosporidium parvum; conditions: Calibr Crypto Panel 2
HCT-8 cells = test: HCT-8 host cell count (Calibr); conditions: read-out: HCT-8 Cell Count CC50; host cells infected with Sterling oocysts
C. hominis TU502 isolate = test: Calibr high-content imaging Cryptosporidium panel; format: cell-based, Cryptosporidium hominis
[2] = system: C. parvum U AZ Laboratory isolate; test: microbe, parasite or virus in culture; format: cell-based, Cryptosporidium parvum
HEK293T = test: 72H HEK293T Cytotoxicity; format: cell-based
[3] = system: C. parvum Bunch Grass Farms isolate; test: Calibr high-content imaging Cryptosporidium panel; format: cell-based, Cryptosporidium parvum; conditions: Calibr Crypto Panel 2
NLuc C. parvum = system: NLuc C. parvum; parameters: method as in PMID 30830766; conditions: cited from earlier work
[4] = female, Balb/c, mouse, in vivo
C. parvum = conditions: bovine, in vivo
[5] = cited from earlier work
[6] = system: NLuc-expressing C. parvum; parameters: method as in PMID 30830766; conditions: 8 mg/kg QD x 5 PO, 20 days p.i.; cited from earlier work
[7] = system: micronuclei in interphase cells; test: In vitro micronucleus (IVMN) test
[8] = system: NLuc-expressing C. parvum; test: NLuc C. parvum IFNγ-KO mouse infection model, oocyst shedding; format: in vivo
[9] = dog, in vivo
5-HT2B = biological target: T1, 5-HT2B (Homo sapiens, UniProt P41595); test: Cerep binding assay; conditions: agonist radioligand, mean, read-out: % inhibition of control specific binding
T1 construct: Cerep (Eurofins, France)

[10] = system: A-375, Hs294T, MEWO, and Colo678 carcinoma cell lines
[11] = Mouse plasma, brain and GI exposure PK, Balb/c, 30 mg/kg PO; conditions: Brains, 0.5 hr, individual samples

T1 sequence (P41595 whole entry): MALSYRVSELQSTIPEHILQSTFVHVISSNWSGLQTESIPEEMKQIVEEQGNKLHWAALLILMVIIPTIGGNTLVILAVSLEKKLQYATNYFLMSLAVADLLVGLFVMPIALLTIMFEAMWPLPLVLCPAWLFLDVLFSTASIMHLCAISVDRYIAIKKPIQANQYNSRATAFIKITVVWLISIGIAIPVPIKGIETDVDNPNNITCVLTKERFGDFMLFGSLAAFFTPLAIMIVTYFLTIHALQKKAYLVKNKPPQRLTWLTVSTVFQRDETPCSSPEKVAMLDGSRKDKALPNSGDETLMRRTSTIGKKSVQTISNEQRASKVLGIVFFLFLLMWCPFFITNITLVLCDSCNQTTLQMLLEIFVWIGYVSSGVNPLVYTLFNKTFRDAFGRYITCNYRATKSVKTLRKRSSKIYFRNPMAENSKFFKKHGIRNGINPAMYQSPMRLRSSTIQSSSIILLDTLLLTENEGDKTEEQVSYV

CCOc1ccc2cc(-c3nn(CC4CCN(C)CC4)c4ncnc(N)c34)ccc2c1 [BKI-1294]
EC50 ([1]; read-out: Wild C. parvum Spot Count EC50): 0.337 µM
EC90 ([1]; read-out: Wild C. parvum Spot Count EC90): 27.3 µM
CC50 (HCT-8 cells): > 25 µM
EC50 (C. hominis TU502 isolate; Calibr Crypto Panel 2, 2018-07-02, read-out: C. hominis Spot Count EC50): 2.82 µM
EC90 (C. hominis TU502 isolate; Calibr Crypto Panel 2, read-out: C. hominis Spot Count EC90): 14.8 µM
EC50 ([2]; Calibr Crypto Panel 2, 2018-06-18, read-out: Sterling Lab C. parvum Spot Count EC50): 0.468 µM
EC90 ([2]; Calibr Crypto Panel 2, read-out: Sterling Lab C. parvum Spot Count EC90): 8.29 µM
CC50 (HEK293T): 22.2 µM
EC50 ([3]; read-out: Bunch Grass Farm C. parvum Spot Count EC50): 2.02 µM
EC90 ([3]; read-out: Bunch Grass Farm C. parvum Spot Count EC90): 5.44 µM

CC(C)(CO)Cn1nc(-c2ccc3cc(OC4CC4)ccc3c2)c(C(N)=O)c1N [BKI-1708]
EC50 (NLuc C. parvum): 0.4 µM
postnatal mortality (%) [4]: 0%
Clinical scores (C. parvum): 10.5
Weights, %∆ (C. parvum): 6.329% and 8.511% and 5.263%
Weights, %∆, mean (C. parvum): 6.701%
maximum tolerated single dose [5]: 400 mg/kg
log reduction in oocyst shedding over untreated controls [6]: > 3 log
IVMN test result [7]: no change in the frequency of micronucleated cells
efficacy ([8]; 8 mg/kg QD x 3): failed to recapitulate efficacy
log reduction in oocyst shedding ([8]; 15 mg/kg x 2 days, day 20 p.i.): 2.1 log
log reduction vs peak infection levels of untreated control ([8]; 60, 30 and 15 mg/kg QD x 3, up to 20 days p.i.): > 4 log
day p.i. oocyst shedding reached LoD ([8]; BKI-1708 15 mg/kg QD x 3 PO): ≤ 13 days
day p.i. oocyst shedding reached LoD ([8]; BKI-1708 30 mg/kg QD x 3 PO): ≤ 13 days
day p.i. oocyst shedding below LoD ([8]; BKI-1708 60 mg/kg QD x 3 PO): ≤ 10 days
log reduction in oocyst shedding ([8]; single 15 mg/kg dose, 13 days p.i.): 1.4 log
log reduction in oocyst shedding ([8]; single 15 mg/kg dose, 20 days p.i.): 1.7 log
log reduction in oocyst shedding ([8]; single 60 mg/kg dose, 13 days p.i.): 3.5 log
plasma level without appreciable effect on MAP, HR, contractility, SVR, CO, QT, QRS, PR [9]: 95 µM
inhibition at 10 µM (5-HT2B): 24.3%

CC(=O)Nc1cccc(-n2c(=O)n(C3CC3)c(=O)c3c(Nc4ccc(I)cc4F)n(C)c(=O)c(C)c32)c1 [Trametinib]
inhibitory concentration in MEK1 proliferation-dependent cell lines [10]: 7 to 60 nM

CC1(C)Cn2nc(-c3ccc4cc(OC5CC5)ccc4c3)c(C(N)=O)c2NC1O (stereo not shown) [compound 1862]
Brains concentration [11]: 0.0641 µM
RLU Raw ([8]; 8 mg/kg x 3 d, Day 6): 1384352 RLU
RLU Raw ([8]; 8 mg/kg x 3 d, Day 7): 821824 RLU
RLU Raw ([8]; 8 mg/kg x 3 d, Day 8): 1485152 RLU
RLU Raw ([8]; 8 mg/kg x 3 d, Day 9): 162144 RLU
RLU Raw ([8]; 8 mg/kg x 3 d, Day 10): 41552 RLU
RLU Raw ([8]; 8 mg/kg x 3 d, Day 13): 6176 RLU
RLU Raw ([8]; 8 mg/kg x 3 d, Day 15): 4992 RLU
RLU Raw ([8]; 8 mg/kg x 3 d, Day 17): 608 RLU
RLU Raw ([8]; 8 mg/kg x 3 d, Day 20): 1296 RLU
RLU standardized by fecal weight (Normalized) ([8]; 8 mg/kg x 3 d, day 6 p.i.): 226943 RLU
RLU standardized by fecal weight (Normalized) ([8]; 8 mg/kg x 3 d, day 7 p.i.): 75397 RLU
RLU standardized by fecal weight (Normalized) ([8]; 8 mg/kg x 3 d, day 8 p.i.): 146320 RLU
RLU standardized by fecal weight (Normalized) ([8]; 8 mg/kg x 3 d, day 9 p.i.): 15516 RLU
RLU standardized by fecal weight (Normalized) ([8]; 8 mg/kg x 3 d, day 10 p.i.): 4240 RLU
RLU standardized by fecal weight (Normalized) ([8]; 8 mg/kg x 3 d, day 13 p.i.): 468 RLU
RLU standardized by fecal weight (Normalized) ([8]; 8 mg/kg x 3 d, day 15 p.i.): 409 RLU
RLU standardized by fecal weight (Normalized) ([8]; 8 mg/kg x 3 d, day 17 p.i.): 61 RLU
RLU standardized by fecal weight (Normalized) ([8]; 8 mg/kg x 3 d, day 20 p.i.): 214 RLU
RLU Raw ([8]; 15 mg/kg x 3 d, Day 6): 1490624 RLU
RLU Raw ([8]; 15 mg/kg x 3 d, Day 7): 876560 RLU
RLU Raw ([8]; 15 mg/kg x 3 d, Day 8): 670544 RLU
RLU Raw ([8]; 15 mg/kg x 3 d, Day 9): 9856 RLU
RLU Raw ([8]; 15 mg/kg x 3 d, Day 10): 2928 RLU
RLU Raw ([8]; 15 mg/kg x 3 d, Day 13): 512 RLU
RLU Raw ([8]; 15 mg/kg x 3 d, Day 15): 400 RLU
RLU Raw ([8]; 15 mg/kg x 3 d, Day 17): 288 RLU
RLU Raw ([8]; 15 mg/kg x 3 d, Day 20): 192 RLU
RLU standardized by fecal weight (Normalized) ([8]; 15 mg/kg x 3 d, day 6 p.i.): 200084 RLU
RLU standardized by fecal weight (Normalized) ([8]; 15 mg/kg x 3 d, day 7 p.i.): 110259 RLU
RLU standardized by fecal weight (Normalized) ([8]; 15 mg/kg x 3 d, day 8 p.i.): 111757 RLU
RLU standardized by fecal weight (Normalized) ([8]; 15 mg/kg x 3 d, day 9 p.i.): 1398 RLU
RLU standardized by fecal weight (Normalized) ([8]; 15 mg/kg x 3 d, day 10 p.i.): 284 RLU
RLU standardized by fecal weight (Normalized) ([8]; 15 mg/kg x 3 d, day 13 p.i.): 37 RLU
RLU standardized by fecal weight (Normalized) ([8]; 15 mg/kg x 3 d, day 15 p.i.): 29 RLU
RLU standardized by fecal weight (Normalized) ([8]; 15 mg/kg x 3 d, day 17 p.i.): 32 RLU
RLU standardized by fecal weight (Normalized) ([8]; 15 mg/kg x 3 d, day 20 p.i.): 66 RLU
RLU Raw ([8]; 30 mg/kg x 3 d, Day 6): 1093968 RLU
RLU Raw ([8]; 30 mg/kg x 3 d, Day 7): 650000 RLU
RLU Raw ([8]; 30 mg/kg x 3 d, Day 8): 37104 RLU
RLU Raw ([8]; 30 mg/kg x 3 d, Day 9): 1536 RLU
RLU Raw ([8]; 30 mg/kg x 3 d, Day 10): 336 RLU
RLU Raw ([8]; 30 mg/kg x 3 d, Day 13): 208 RLU
RLU Raw ([8]; 30 mg/kg x 3 d, Day 15): 240 RLU
RLU Raw ([8]; 30 mg/kg x 3 d, Day 17): 2640 RLU
RLU Raw ([8]; 30 mg/kg x 3 d, Day 20): 192 RLU
RLU standardized by fecal weight (Normalized) ([8]; 30 mg/kg x 3 d, day 6 p.i.): 163279 RLU
RLU standardized by fecal weight (Normalized) ([8]; 30 mg/kg x 3 d, day 7 p.i.): 191176 RLU
RLU standardized by fecal weight (Normalized) ([8]; 30 mg/kg x 3 d, day 8 p.i.): 11969 RLU
RLU standardized by fecal weight (Normalized) ([8]; 30 mg/kg x 3 d, day 9 p.i.): 290 RLU
RLU standardized by fecal weight (Normalized) ([8]; 30 mg/kg x 3 d, day 10 p.i.): 51 RLU
RLU standardized by fecal weight (Normalized) ([8]; 30 mg/kg x 3 d, day 13 p.i.): 29 RLU
RLU standardized by fecal weight (Normalized) ([8]; 30 mg/kg x 3 d, day 15 p.i.): 21 RLU
RLU standardized by fecal weight (Normalized) ([8]; 30 mg/kg x 3 d, day 17 p.i.): 290 RLU
RLU standardized by fecal weight (Normalized) ([8]; 30 mg/kg x 3 d, day 20 p.i.): 23 RLU
